Measured values published in article PMC6218115, “In Vitro Potency and Preclinical Pharmacokinetic Comparison of All-D-Enantiomeric Peptides Developed for the Treatment of Alzheimer’s Disease” (Journal of Alzheimer's Disease, 2018).
Non-standard residues stand in square brackets, D forms with d. Residues, ends and D or L forms follow the SMILES beside them.

Tests used:
[1] = molecular target: T1, Aβ1-42 (Homo sapiens, UniProt P05067); assay: Aβ aggregation assay (Thioflavin T); format: biochemical; details: 10 μM Aβ1-42, 5 μM ThT, 20 mM sodium phosphate pH 7.4, 50 mM NaCl, 37°C, 70 h, triplicates, nonlinear regression; read-out: IC50, inhibition of Aβ1-42 aggregation into ThT-positive fibrils
T1 construct: Lyophilized Aβ1 - 42 was dissolved in the respective peptide solution; purchased Isoloid GmbH (recombinant) or Bachem AG (synthetic)
T1 sequence (P05067 672-713 limits assumed): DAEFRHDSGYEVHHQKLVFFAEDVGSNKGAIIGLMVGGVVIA
Description: The potencies of ANK6, tANK6, cANK6r, and D3 to inhibit Aβ1 - 42 aggregation was examined using Thioflavin T (ThT). For this purpose, a buffer solution composed of 20 mM sodium phosphate buffer (pH 7.4) including 50 mM sodium chloride, and 5μM ThT was prepared. Afterwards, ANK6, tANK6, cANK6r, or D3 were diluted in this solution, respectively, to final peptide concentrations between 0.3125 and 80μM (ANK6 and tANK6:0.3125, 0.625, 1.25, 2.5, 5, 10, 20μM; cANK6r: 1.25, 2.5, 5, 10, 20, 40, 80μM; D3:1.17, 2.34, 4.7, 9.4, 18.8, 37.5, 75μM).
The buffer solution only served as negative control (blank). Lyophilized Aβ1 - 42 was dissolved in the respective peptide solution to a final concentration of 10μM. D-peptide solutions with the highest concentration of the respective D-peptide containing all components, except of Aβ1 - 42, served as negative controls. Aβ1 - 42 solved in buffer solution without D-peptide served as positive control. 100μL of each solution were transferred into the wells (triplicates) of 96 well microplates (PS, black, non-binding from Greiner Bio-One, Germany) and fluorescence signals (excitationλ 440 nm, emissionλ 490 nm) were measured in a Polarstar Optima plate reader (BMG, Germany) at 37°C every 20 min for 70 h. Afterwards, the respective blank curves were subtracted from each aggregation curve to exclude background fluorescence. […] The half maximal inhibitory concentration (IC50 value) was determined by plotting the percent inhibition against the respective D-peptides’ concentrations. Datasets were fitted by nonlinear regression (one site – specific binding with Hill slope, GraphPad Prism 5).

[2] = system: α1-acid glycoprotein (AGP); details: Jiang et al.; read-out: KD of D3 to AGP; cited from earlier work
Description: This had been expected before as all three D-peptides have a positive net charge and AGP is known to more strongly bind positively charged molecules as compared to HSA, which is known to bind rather acidic or neutral molecules. This had been observed previously for D3 in a similar manner. […] The unbound fractions (fu) of the th ...

Q: For CC(C)C[C@@H](NC(=O)[C@@H](CCCNC(=N)N)NC(=O)[C@H](NC(=O)[C@@H](CCCNC(=N)N)NC(=O)[C@H]1CCCN1C(=O)[C@H](N)CCCNC(=N)N)[C@H](C)O)C(=O)N[C@H](Cc1c[nH]cn1)C(=O)N[C@@H](C(=O)N[C@H](Cc1c[nH]cn1)C(=O)N[C@H](CCCNC(=N)N)C(=O)N[C@H](CC(N)=O)C(=O)N[C@H](CCCNC(=N)N)C(N)=O)[C@H](C)O [Peptide D3] (H-[dR][dP][dR][dT][dR][dL][dH][dT][dH][dR][dN][dR]-NH2), which IC50 [1] is on record?
A: 7.2 µM

Q: And the Kd [2]?
A: 1.8 µM
